“And” between values parts separate entries of the source, which are not always exact repeats. Equal entries are not always repeated. “Also recorded” adds a separate entry of the source.
Columns and labels:
[1] = acute toxicity, subcutaneous administration; conditions: mouse, in vivo, sc, mice
Procedure: The acute toxicities of the new compounds having the general formula (I) were measured on mice, under subcutaneous administration.

[2] = system: amphetamine-provoked hypermotility; test: inhibition of amphetamine-provoked hypermotility (psychosedative effect); type: in vivo; conditions: mice, amphetamine 3 mg/kg s.c. simultaneously, control = 100%
Procedure: This conclusion was based upon experimentation with mice by measuring their inhibition ability exerted on amphetamine-provoked hypermotility. the animals so tested were treated subcutaneously with 3 mg/kg of amphetamine (α-methyl-phenethylamine)while simultaneously administering the novel compound of formula (I) herein. A control test was run in which no psychosedative agent was used. The extent of hypermotility observed in the control group treated only with 3 mg/kg of amphetamine was regarded as 100%, and the percentage of inhibition observed in the test groups was related to this value.

waking cats = test: behavioural effects in waking cats, compared with scopolamine; type: in vivo; conditions: for akinesia / standing position / behavioural effects in cats (first effects) / paralysis: s.c. 100 mg/kg isomer "b", 150 mg/kg scopolamine; for paralysis: 30 minutes after administration
Procedure: Accordingly, the effects of this "b" iosmer were compared directly with scopolamine by the use of a subcutaneous dosage of 100 mg/kg of the former and 150 mg/kg of the latter.

[3] = system: analgesic effect of morphine; test: potentiation of the analgesic effect of morphine; conditions: in vivo
[4] = system: narcosis provoked by hexobarbital; test: potentiation of the narcosis provoked by hexobarbital; conditions: in vivo
waking dogs = test: behavioural effects in waking dogs, compared with scopolamine; type: in vivo
[5] = anticholinergic / atropine-like activity; conditions: in vivo
[6] = well-known, cited from earlier work

CCOc1cc2c(cc1OCC)C1CC(=NO)C3CCCCC3N1CC2 (stereo not shown) [2-Hydroxyimino-3,4-cyclohexano-9,10-diethoxy-1,2,3,4,6,7,-hexahydro-11bH-benzo[a]quinolisine]
LD50 [1]: > 300 mg/kg | Inhibition (of amphetamine-provoked hypermotility) ([2]; 100 mg/kg s.c.): 85%

COc1cc2c(cc1OC)C1CC(=NO)C3CCCCC3N1CC2 (stereo not shown) [2-Hydroxyimino-3,4-cyclohexano-9,10-dimethoxy-1,2,3,4,6,7-he] [2-Hydroxyimino-3,4-cyclohexano-9,10-dimethoxy-1,2,3,4,6,7-hexahydro-11bH-benzo[a]quinolisine]
akinesia / standing position (waking cats; cats): more complete akinesia than scopolamine; also recorded: could not be brought to a standing position, their limbs immediately sliding apart although the carriage of their heads remained stationary | behavioural effects in cats (first effects) (waking cats; cats): restlessness coupled with hallucinations of the same type and degree | paralysis (waking cats; cats): all animals were paralyzed | response to capsaicine dropped into the eyes (waking cats; cats, s.c., capsaicine into eyes): long-lasting blepharospasm and mewing | response to painful stimuli (waking cats; cats, s.c., painful stimuli): strong mewing response | symptoms in waking cats compared with scopolamine (waking cats; waking cats): symptons similar to those os scopolamine | potentiation of the analgesic effect of morphine [3]: did not potentiate the analgesic effect of morphine | potentiation of the narcosis provoked by hexobarbital [4]: nor did it potentiate the narcosis provoked by hexobarbital | Inhibition (of amphetamine-provoked hypermotility) ([2]; 20 mg/kg s.c.): 66% | Inhibition (of amphetamine-provoked hypermotility) ([2]; 100 mg/kg s.c.): 33% | symptoms in waking dogs compared with scopolamine (waking dogs): symptons similar to those os scopolamine | awakening upon smell, slight noise and tactile stimuli (waking dogs; 10 mg/kg s.c.): not a narcotic effect, for the dogs were awakened readily upon smell stimuli related to food or slight noice and tactile stimuli | behavior after awakening (waking dogs; 10 mg/kg s.c.): normal behavior after awakening | behavioural effects in waking dogs (waking dogs; 10 mg/kg s.c.): remarkable quietness and the animals fell asleep

COc1cc2c(cc1OC)C1CC(=NO)C3CCCC3N1CC2 (stereo not shown) [2-Hydroxyimino-3,4-cyclopentano-9,10-dimethoxy-1,2,3,4,6,7-h] [2-Hydroxyimino-3,4-cyclopentano-9,10-dimethoxy-1,2,3,4,6,7-hexahydro-11bH-benzo[a]quinolisine]
Inhibition (of amphetamine-provoked hypermotility) ([2]; 100 mg/kg s.c.): 40% and 61%

COc1cc2c(cc1OC)C1CC(=NO)C3CCCC3N1CC2 (stereo not shown) [2-Hydroxyimino-3,4-cyclopentano-9,10-dimethoxy-1,2,3,4,6,7-hexahydro-11bH-benzo[a]quinolisine]
LD50 [1]: > 500 mg/kg

CN1[C@@H]2C[C@@H](OC(=O)[C@H](CO)c3ccccc3)C[C@H]1[C@@H]1O[C@@H]12 [scopolamine]
anticholinerg activity [5]: did not exert anticholinerg activity | atropine-like effect [5]: marked atropine-like effect | akinesia / standing position (waking cats; cats): remained in a standing position | behavioural effects in cats (first effects) (waking cats; cats): restlessness coupled with hallucinations of the same type and degree | paralysis (waking cats; cats): all animals were paralyzed | therapeutic psychosedative effects ([6]; small dosages): therapeutic psychosedative effects | side effects [6]: strong atropine-like parasympatholytic side effects
